# In article PMC7177633, “Effective Cellular Transport of Ortho-Halogenated Sulfonamide Derivatives of Metformin Is Related to Improved Antiproliferative Activity and Apoptosis Induction in MCF-7 Cells” (International Journal of Molecular Sciences, 2020):
# Read-outs that look alike come from different tables or passages of the source.
# Assays:
# [1] = tested on: OCTs; assay: Inhibition of [14C]choline uptake in MDA-MB-231 cells (competitive inhibition assay); assay type: cell-based, human; conditions: mean ± SD (n = 3)
# Protocol: (§1) The following day, after removal of the culture medium, the cells were carefully washed with prewarmed HBSS (Hanks’ balanced salt solution) containing 125 mM NaCl, 4.8 mM KCl, 1.2 mM MgSO4, 1.2 mM KH2PO4, 1.3 mM CaCl2, 5.6 mM glucose and 25 mM HEPES (pH 7.4). […] Then, the cells were washed three times with ice-cold HBSS (500 μL) and were lysed with 250 μL of 0.1-M NaOH in the ice bath, and the lysate was mixed with 1.0 mL of an emulsifier safe cocktail (PerkinElmer, Waltham, MA, USA). The radioactivity was measured by liquid scintillation counting (MicroBeta^2 counter, PerkinElmer, Waltham, MA, USA). The studies were carried out with the use of at least three replicates from the same cell passage.
# [2] = tested on: MDA-MB-231 cells; assay: Uptake in the presence of OCT and MATE inhibitors, MDA-MB-231 cells; assay type: in vitro ADME, human; conditions: summary from uptake with inhibitors
# Protocol: (§2) The uptake of sulfonamide derivatives of metformin (1–9) in MCF-7 and MDA-MB-231 cells was studied also in the presence of disopyramide, cimetidine (OCT1 and 3 inhibitors), lopinavir (OCT and PMAT inhibitor) and methenamine (MATE and OCT2 inhibitors). The cells were incubated (37 °C, 10 min) with compounds 1–9 at concentrations of 400 and 800 μmol/L and inhibitors (disopyramide, cimetidine, lopinavir or methenamine) in 250 μL of prewarmed HBSS buffer. The protocol of determination of the compound concentration was as described above.
# [3] = tested on: MCF-7 cells; assay: Cellular uptake of metformin sulfonamides in MCF-7 cells (HPLC); assay type: in vitro ADME, human
# Protocol: (§3) The uptake of metformin sulfonamides (1–9) in MCF-7 and MDA-MB-231 cells was studied by incubation of the cells with 10−3000 μmol/L of compounds in 250 μL of prewarmed HBSS buffer at 37 °C for 10 min. Subsequently, the cells were then washed three times with 500 μL of ice-cold HBSS and lysed with 250 μL of 0.1-M NaOH. The samples were collected, centrifuged (5 min, 1400 rpm) and the supernatants were analyzed by the HPLC method. The concentration of each compound in the cells was calculated on the basis of the standard curve prepared by spiking known amounts of every compound on the cell layers in 250 μL of 0.1-M NaOH.
# (§4) The concentration of the studied sulfonamides (1–9) was assessed using the HPLC system, consisting of an Agilent 1100 binary pump (Agilent Technologies Inc., Wilmington, DE, USA), an 1100 micro-vacuum degasser, an HP 1050 autosampler and an HP 1050 variable wavelength detector (operated at 235 nm). The chromatographic separations of compounds 1–9 were conducted on an Agilent Zorbax SB-C18 analytical column (4.6 mm × 150 mm, 5 μm) using an isocratic elution of water containing 0.1% formic acid (pH ca. 3.0) and acetonitrile containing 0.1% formic acid with a changing ratio, depending on the compound. The analyses were conducted at room temperature (RT). The detailed procedure of chromatographic analysis was described in our previous paper. The studies were conducted in quadruplicates.
# (§5) The protein concentrations in representative wells of each plate were assessed using a Bio-Rad protein assay according to the Bradford method (EnVision, PerkinElmer, Inc., Waltham, MA, USA).
# [4] = tested on: MDA-MB-231 cells; assay: Cellular uptake of metformin sulfonamides in MDA-MB-231 cells (HPLC); assay type: in vitro ADME, human; conditions: for Vmax, transporter I, MDA-MB-231 / Km / Vmax, transporter II, MDA-MB-231: Eadie-Hofstee analysis
# Protocol: as §3, §4, §5
# [5] = tested on: MDA-MB-231 cells; assay: Cell viability WST-1 assay, MDA-MB-231; assay type: cell-based; conditions: Homo sapiens, MDA-MB-231, 24 h, 3000 µmol/L, WST-1, 24 h; read-out: percentage of viability of MDA-MB-231 cells
# Protocol: (§6) The viability of MCF-7 and MDA-MB-231 cells was determined using a colorimetric WST-1 assay (Takara, Takara Bio Europe, Saint-Germain-en-Laye, France). Both cell lines were seeded at a density of 1 × 10^4 per well on 96-well plates and were cultured for 24 h to obtain 70% confluence. The following day, the cells were treated with various concentrations of compounds 1–9 diluted in the cell culture medium ([…]). The cells were incubated with tested compounds or pure medium (control) for 24 h (37 °C, 5% CO2). Afterwards, the cells were washed with 100 μL of culture medium, and then, the reagent dissolved in the medium was added (100 μL). The plates were incubated at the standard condition for 1.5 h, and the absorbance was read at 450 nm using a microplate reader (iMARK, Bio-Rad, Bio-Rad Laboratories Inc., Hercules, CA, USA). […] The results of samples treated with the test compounds were expressed as a percentage of the control samples. The data were presented as mean ± standard deviation (SD), n = 8. IC50 values (the concentration of the tested compound that inhibited cell growth by 50%) were calculated using a concentration-response curve (GraphPad Prism, Software, San Diego, CA, USA).
# (§7) The concentrations contributing to the 50% of cell growth inhibition (IC50) were calculated using nonlinear regression analysis (fitting the curve to log (concentration) vs. cellular response).
# [6] = tested on: OCTs; assay: Inhibition of [14C]choline uptake in MCF-7 cells (competitive inhibition assay); assay type: cell-based, human; conditions: mean ± SD (n = 3)
# Protocol: as §1
# [7] = tested on: MCF-7 cells; assay: Uptake in the presence of OCT and MATE inhibitors, MCF-7 cells; assay type: in vitro ADME, human; conditions: for interactions with OCT, PMAT and MATE1 transporters, MCF-7: summary from uptake with inhibitors
# Protocol: as §2
# [8] = tested on: MCF-7 cells; assay: Cell viability WST-1 assay, MCF-7; assay type: cell-based; conditions: Homo sapiens, MCF7; WST-1, 24 h, mean ± SD (n = 6–8); read-out: IC50 inhibition of MCF-7 cells' viability
# Protocol: as §6, §7
# [9] = 800 μmol/L, 10 min incubation, 37 °C
# [10] = transporter I, read-out: Km, transporter I, MDA-MB-231
# [11] = transporter II, read-out: Km, transporter II, MDA-MB-231
# [12] = compound and inhibitor 400 and 800 µmol/L, 10 min, 37 °C
SMILES,IC50 [1] [µM],"interactions with OCT, PMAT and MATE1 transporters, MDA-MB-231 [2]","Vmax, transporter I, MDA-MB-231 ([4]; transporter I) [nmol/min/mg]","Km [4, 10] [µM]","Vmax, transporter II, MDA-MB-231 ([4]; transporter II) [nmol/min/mg]","Km [4, 11] [µM]",viability at 3000 µM [5] [%],IC50 [6] [µM],"interactions with OCT, PMAT and MATE1 transporters, MCF-7 [7]",IC50 [8] [µM],other results
CN(C)C(=N)N=C(N)NS(=O)(=O)c1ccc(F)cc1 [Compound 9],1380 ± 14,"OCT1, OCT3",0.097 ± 0.015,1880 ± 429,0.053 ± 0.012,2220 ± 618,~60,1057 ± 7.5,PMAT,422 ± 32.8,"uptake into MCF-7 cells [3, 9]: 0.357 ± 0.112 nmol/min/mg protein; uptake into MDA-MB-231 cells [4, 9]: 0.021 ± 0.002 nmol/min/mg protein"
CN(C)C(=N)N=C(N)NS(=O)(=O)c1cccc(Br)c1 [Compound 5],593 ± 15,"OCT1, OCT3",0.038 ± 0.004,468 ± 109,0.098 ± 0.011,1070 ± 204,~60,888 ± 11.4,"OCT1, MATE1, PMAT",106 ± 12.3,"Vmax, transporter I, MCF-7 ([3]; Eadie-Hofstee analysis, transporter I): 1.635 ± 0.21 nmol/min/mg; Km ([3]; Eadie-Hofstee analysis, transporter I, read-out: Km, transporter I, MCF-7): 3620 ± 619 µM; Vmax, transporter II, MCF-7 ([3]; Eadie-Hofstee analysis, transporter II): 2.167 ± 0.196 nmol/min/mg; Km ([3]; Eadie-Hofstee analysis, transporter II, read-out: Km, transporter II, MCF-7): 6850 ± 713 µM; Vmax MCF-7 (Michaelis Menten curves) ([3]; Michaelis-Menten curve): 1.87 ± 0.95 nmol/min/mg; Km ([3]; Michaelis-Menten curve, read-out: Km MCF-7 (Michaelis Menten curves)): 4940 ± 1340 µM; uptake in the presence of disopyramide, MCF-7 [7, 12]: significantly reduced; uptake in the presence of lopinavir, MCF-7 [7, 12]: increased; uptake in the presence of methenamine, MCF-7 [7, 12]: increased"
